Test: Stability of ADBAC solutions
Format: physicochemical
Text: The principal antibacterial ingredient in these formulations is alkyl dimethyl benzyl ammonium chloride (ADBAC). ADBAC is effective in killing the bacteria associated with mastitis in milking animals, and is not an oxidant. It also has a slight detergent action and so assists in cleaning dirt off of the animal's teats. […] It is inexpensive and is obtained commercially in a convenient dry form under the trade name TIMSEN. In TIMSEN, urea is used as a carrier and a buffer in a weight ratio of about three parts urea to two parts ADBAC by weight. Urea will be in the sanitizing fluid when TIMSEN is used as the stock source for ADBAC, however, it will be understood that urea is not an active ingredient in these formulations.

Q: Which stability of solutions does the source give for “alkyl dimethyl benzyl ammonium chloride [ADBAC]” here?
A: The stability of solutions was “stable for over a year”.

— patent US20040047829A1, “Fluids for sanitizing the teats of dairy animals” (priority 2002, published 2004)
